In patent US12472180B2, “Combinations for treatment of NAFLD/NASH and related diseases” (Pfizer Inc., priority 2020, dated 2025):
Where a name gives a salt, the structure may show the parent alone.

Key:
αSMA and COL1A1 = assay: Hepatic fibrogenesis gene expression in CDAHFD fed rats (qPCR); type: in vivo, rat; settings: A 5 mg/kg, D 30 mg/kg twice daily, 6 weeks
Excerpt: Standard laboratory conditions were used to house 60 rats (˜200 g); they were double housed and kept under 12:12-hour reverse light-dark schedule (lights off at 8:00 AM). Rats were fed choline deficient and high fat diet (CDAHFD) beginning 6-weeks prior to initiation of the study. […] Animals (n=12) remaining on normal chow throughout the study and administered twice-daily vehicle were used as a control group. Blood samples were collected prior to starting compound administration and 3- and 6-week post compound administration for the assessment of circulating markers. Shearwave elastography (Aixplorer Ultimate imager, Supersoinc imagine) measurements were made at Week −3, Week 0 (prior to 1st dose), Week 3 and Week 6 to assess inflammation and fibrosis progression over time. Histology was assessed following 6-weeks of drug administration which corresponded to 12 weeks on the CDAHFD. Results are provided as an average of animals per each dosing group.
Following the 12-weeks on CDAHFD, the animals were sacrificed by CO2 asphyxiation. The right lateral, medial and left lateral lobes of the liver were harvested. Sections were taken from the left lateral, right medial and right lateral lobes and fixed in formalin and processed to paraffin blocks per animal. One section of left lateral lobe per animal was cryopreserved in optimal cutting temperature (OCT) compound. The remainder of the liver from each animal was frozen and rapidly pulverized on an aluminum block cooled in liquid N2, ensuring the tissue remained frozen throughout the pulverization. The pulverized tissue was transferred and stored at −80° C. until analysis. A portion of the pulverized liver sample from each animal was processed and analyzed for gene expression markers of fibrogenesis. Rat taqman probes against αSMA and COL1A1 were all assessed using Actb as housekeeping gene on qPCR.

[1] = tested on: ACC1, FASN, SCD1, PCSK9 and SREBP-1c; assay: Hepatic lipogenic gene expression in Western diet fed rats (qPCR); type: in vivo, rat; settings: Compound A: ACC1, FASN (high dose only), SCD, but not PCSK9 and SREBP1
Protocol: (§1) A randomized, vehicle-controlled, 8-parallel arm study was conducted in male Sprague-Dawley rats (Charles River (Boston, MA)) to obtain circulating and hepatic TG levels. Standard laboratory conditions were used to house 96 rats (˜200 g); they were double housed and kept under 12:12-hour reverse light-dark schedule (lights off at 8:00 AM). Rats were randomized into chow or Western diet groups and dose groups upon arrival and were given a 14-day lead-in period on either standard rat chow or Western diet prior to the start of the study. Standard Laboratory Rodent chow diet, 5053, was from LabDiet (PMI, St Louis, Missouri). Western Diet, D12079Bi, was from Research Diets (New Brunswick, NJ).
On the last day of the study (Day 28), rats were sacrificed for tissue collection after a 4 hour fast, 2 hours post-dose: two hours post-dose, blood for determining plasma analytes was collected via lateral tail vein and then the animals were sacrificed by CO2 asphyxiation. Blood was transferred to BD Microtainer tubes coated with K2EDTA (PN365974), centrifuged at 4° C. and the plasma transferred to a 96-well microtitre plate and stored at −20° C. […]
Another portion of the pulverized liver was processed and analyzed for lipogenic gene expression. Rat taqman probes against ACC1, FASN, SCD1, PCSK9 and SREBP-1c were all assessed using Actb as housekeeping gene on qPCR.

[2] = tested on: Western diet fed Sprague Dawley rats; assay: Plasma triglycerides (fed and fasted) in Western diet fed Sprague Dawley rats; type: in vivo, rat; settings: 4 hour fast
Protocol: as §1
(§2) For these studies, vehicle was prepared to make a 0.5% (wt/volume) of methyl cellulose (MC, Sigma Aldrich; 274429) in deionized water.
Fed plasma analytes: Blood for determining fed plasma TG concentrations was collected 2 hours post dose (2 hours into the dark cycle) via lateral tail vein, transferred to BD Microtainer tubes coated with dipotassium ethylenediaminetetraacetic acid (K2EDTA) (PN365974), and centrifuged at 4° C. The resulting plasma samples were then analyzed on a Siemens Chemistry XPT clinical analyzer (Malven, PA) using Siemens triglycerides_2 assay reagents (ref 10335892).
Fasted plasma analytes: Blood for determining fasted plasma TG was collected after a 4 hour fast, 2 hours post-dose (2 hours into the dark cycle) via lateral tail vein, transferred to BD Microtainer tubes coated with K2EDTA (PN365974), and centrifuged at 4° C. The resulting plasma samples were then analyzed on a Siemens Chemistry XPT clinical analyzer (Malven, PA) using Siemens triglycerides 2 assay reagents (ref 10335892).

SREBP-1 = assay: Nuclear SREBP-1 localization in liver of Western diet fed rats (Western blot); type: in vivo, rat; settings: high dose monotherapy (A 10 mg/kg QD; D 30 mg/kg BID); pooled liver samples
Protocol: as §1, with “NJ). […]” for “NJ).”
Nuclear and Membrane fractions were prepared by ultracentrifugation using standard methods from a portion of the pulverized liver samples, that were pooled per treatment group. Samples from the nuclear extract and the membrane fractions were analyzed by Western blotting for SREBP1. […] Nuclear SREBP1 levels were quantified using relative units and normalized to Histone 2B to control for sample loss during the nuclear fractionation and gel loading.

[3] = tested on: Western diet fed Sprague Dawley rats; assay: Hepatic triglyceride (steatosis) in Western diet fed rats; type: in vivo, rat; settings: or both, Day 28
Protocol: as §1, §2
On the last day of the study (Day 28), rats were sacrificed for tissue collection after a 4 hour fast, 2 hours post-dose: two hours post-dose, blood for determining plasma analytes was collected via lateral tail vein and then the animals were sacrificed by CO2 asphyxiation. Blood was transferred to BD Microtainer tubes coated with K2EDTA (PN365974), centrifuged at 4° C. and the plasma transferred to a 96-well microtitre plate and stored at −20° C. Livers were rapidly removed, freeze-clamped in a Wollenberg clamp pre-cooled in liquid N2 individually wrapped in aluminum foil and subsequently stored at −80° C.
Tissue pulverization: Frozen livers were rapidly pulverized on an aluminum block cooled in liquid N2, ensuring the tissue remained frozen throughout the pulverization. The pulverized tissues were transferred and stored in 7 mL polypropylene conical tubes at −80° C. until analysis.
Extraction for hepatic triglyceride: Approximately 50 to 100 mg of pulverized tissue was added to a 2 mL lysing matrix D tube (MP Bio) containing 800 μL ice cold 1:1 CHCl3:MEOH. Samples were immediately extracted at 4° C. using Qiagen Tissue Lyser II (Qiagen Cat No. 85300) for 4 minutes at 30 Hz. The homogenate was then transferred to 13×100 mm glass tubes and placed on ice. The lysis tubes were then rinsed with 800 μL of 1:1 CHCl3:MeOH, vortexed for 30 seconds and added to the 13×100 mm glass tubes. While on ice, 2.4 ml of 100% CHCl3 was added to all glass vials to bring the ratio of CHCl3:MeOH to 4:2. Samples were then placed in the −20° C. freezer overnight. On the following day, 1.75 mL 1M KCl H2O was added to bring the ratio to 4:2:1.75 ratio CHCl3:MeOH:H2O. Samples were then vortexed for 30 seconds and centrifuged at 1500 rpm×15 min., at 4° C. After centrifugation, the organic phase was transferred to a fresh 13×100 mm extraction tube, dried down at 37° C. under N2 and re-suspended in 750 μL CHCl3. […]

[4] = Thermodynamic stability of crystalline forms versus water activity; type: physicochemical; settings: ambient temperature; about 0.2 = 20% RH
[5] = high dose: A 10 mg/kg QD, D 30 mg/kg BID
[6] = low dose: A 1 mg/kg QD, D 5 mg/kg BID

Row | water activity at which the form is thermodynamically stable [4] | Structure (SMILES) | hepatic COL1A1 gene expression (αSMA and COL1A1) | hepatic αSMA gene expression (αSMA and COL1A1) | hepatic lipogenic gene expression (ACC1, FASN, SCD1, SREBP-1c, PCSK9) relative to Western diet fed vehicle treated animals [1] | increase in fasted plasma TG, relative to vehicle administered Western diet fed rats ([2]; high dose: Compound A 10 mg/kg QD monotherapy) [fold] | increase in fasted plasma TG, relative to vehicle administered Western diet fed rats ([2]; low dose: Compound A 1 mg/kg QD monotherapy) [fold] | nuclear SREBP-1 localization relative to vehicle treated Western diet fed rats (SREBP-1) | reduction in steatosis (hepatic triglyceride), relative to vehicle administered Western diet fed rats [3, 5] [%] | reduction in steatosis (hepatic triglyceride), relative to vehicle administered Western diet fed rats [3, 6] [%] | reduction of fasted plasma TG, relative to vehicle administered Western diet fed rats ([2]; high dose: Compound D 30 mg/kg BID monotherapy) [%] | reduction of fasted plasma TG, relative to vehicle administered Western diet fed rats ([2]; low dose: Compound D 5 mg/kg BID monotherapy) [%]
1 | – | COc1cc(C(=O)N2CCC3(CC2)CC(=O)c2c(cnn2C(C)C)C3)cc(-c2ccc(C(=O)O)cc2)n1 [Compound A, 4-(4-(1-isopropyl-7-oxo-1,4,6,7-tetrahydrospiro[indazole-5,4′-piperidine]-1′-carbonyl)-6-methoxypyridin-2-yl)benzoic acid] | reduced hepatic αSMA and COL1A1 gene expression | reduced hepatic αSMA and COL1A1 gene expression | trended to further increase | 1.7 | 2.4 | increased nuclear localization of SREBP-1 | 53 | 36 | – | –
2 | – | CCOc1cccnc1Oc1cncc(-c2ncc(C(=O)N[C@H]3CCOC3)cn2)c1 [Compound D, (S)-2-(5-((3-ethoxypyridin-2-yl)oxy)pyridin-3-yl)-N-(tetrahydrofuran-3-yl)pyrimidine-5-carboxamide] | reduced hepatic αSMA and COL1A1 gene expression | reduced hepatic αSMA and COL1A1 gene expression | decreased expression of all of the lipogenic genes | – | – | reduced SREBP-1 nuclear localization | 30 | 25 | 35 | 20
3 | < 0.2 | COc1cc(C(=O)N2CCC3(CC2)CC(=O)c2c(cnn2C(C)C)C3)cc(-c2ccc(C(=O)O)cc2)n1 [Form 1 of Compound A, 4-(4-(1-isopropyl-7-oxo-1,4,6,7-tetrahydrospiro[indazole-5,4′-piperidine]-1′-carbonyl)-6-methoxypyridin-2-yl)benzoic acid anhydrous tris salt] | – | – | – | – | – | – | – | – | – | –
4 | > 0.2 | COc1cc(C(=O)N2CCC3(CC2)CC(=O)c2c(cnn2C(C)C)C3)cc(-c2ccc(C(=O)O)cc2)n1 [Form 2 of Compound A] | – | – | – | – | – | – | – | – | – | –
